Assay results taken from patent EP1683514B1, “Process for the preparation of concentrated suspensions of drugs and kit thereof” (Eratech S.r.l., priority 2005, dated 2006).

Key:
[1] = Purity test after β or γ irradiation (degradation of the pharmaceutical substance); format: physicochemical; settings: powder
Description: A test of microbial count was then carried out on the irradiated suspensions to determine if a satisfactory sterility was achieved. A purity test was also carried out to determine if any degradation of the pharmaceutical substance budesonide was provoked by the irradiation treatment. As a comparison, a test of microbial count and purity was carrier out also on a sample of micronized budesonide powder. A test of microbial count was then carried out on the irradiated suspensions to determine if a satisfactory sterility was achieved. A purity test was also carried out to determine if any degradation of the pharmaceutical substance BDP was provoked by the irradiation treatment. As a comparison, a test of microbial count and purity was carrier out also on a sample of micronized BDP powder.

[2] = Particle size distribution of the micronized powder; format: physicochemical
Description: Micronized Beclomethasone Dipropionate (BDP) powder was added slowly under stirring the solution so obtained. The micronized powder had the following particle size distribution: d(0.1) 0.44 µm, d(0.5) 1.13 µm e d(0.9) 2.42 µm.
Micronized Budesonide powder was added slowly under stirring the solution so obtained. The micronized powder had the following particle size distribution: d(0.1) 0.50 µm, d(0.5) 1.39µm; d(0.9) 3.15 µm.
180 mg of BDP micronized powder were added to the solution so prepared. PSD of the powder was: d(0.1) 0.44 µm, d(0.5) 1.13 µm e d(0.9) 2.42 µm, namely the same PSD of the BDP powder used to prepare the concentrated suspensions of examples 1 - 4.

Question: For CCC(=O)OCC(=O)[C@@]1(OC(=O)CC)[C@@H](C)C[C@H]2[C@@H]3CCC4=CC(=O)C=C[C@]4(C)[C@@]3(Cl)[C@@H](O)C[C@@]21C [BDP Powder, Beclomethasone Dipropionate], which Purity ([1]; BETA IRRADIATION 0 KGy) is on record?
Answer: Its Purity is 99.73%.

Question: What about the Purity ([1]; BETA IRRADIATION 2 KGy) of the same compound?
Answer: The Purity was 99.73%.

Question: And the Purity ([1]; BETA IRRADIATION 4 KGy)?
Answer: The Purity was 99.66%.

Question: And the Purity ([1]; BETA IRRADIATION 6 KGy)?
Answer: The Purity was 99.67%.

Question: And the Purity ([1]; BETA IRRADIATION 8 KGy)?
Answer: Its Purity is 99.51%.

Question: What about the Purity ([1]; BETA IRRADIATION 10 KGy) of the same compound?
Answer: The Purity was 99.49%.

Question: What about the Purity ([1]; GAMMA IRRADIATION 0 KGy) of the same compound?
Answer: The Purity was 99.73%.

Question: What about the Purity ([1]; GAMMA IRRADIATION 2 KGy) of the same compound?
Answer: Its Purity is 99.73%.

Question: What about the Purity ([1]; GAMMA IRRADIATION 4 KGy) of the same compound?
Answer: Its Purity is 99.68%.

Question: What about the Purity ([1]; GAMMA IRRADIATION 6 KGy) of the same compound?
Answer: The Purity was 99.70%.

Question: What about the Purity ([1]; GAMMA IRRADIATION 8 KGy) of the same compound?
Answer: Its Purity is 99.07%.

Question: And the “particle size distribution d(0.1)” value [2]?
Answer: Its value is 0.44 µm.

Question: What about the “particle size distribution d(0.5)” value [2] of the same compound?
Answer: Its value is 1.13 µm.

Question: And the “particle size distribution d(0.9)” value [2]?
Answer: The value was 2.42 µm.
